From PubChem BioAssay (NCI)
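A five-concentration, 48-hour dose response in 96-well plates underlies each endpoint, interpolated linearly between surrounding concentrations. TGI: concentration producing complete growth inhibition.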

Columns and labels:
Test in all cases: NCI-60 cell line screen, 48 h
MCF7 breast = tested on: MCF7 breast
CCRF-CEM leukemia = tested on: CCRF-CEM leukemia
MALME-3M melanoma = tested on: MALME-3M melanoma
PC-3 prostate = tested on: PC-3 prostate
U251 CNS = tested on: U251 CNS
LOX IMVI melanoma = tested on: LOX IMVI melanoma
NCI/ADR-RES ovarian = tested on: NCI/ADR-RES ovarian
NCI-H460 lung = tested on: NCI-H460 lung
SW-620 colon = tested on: SW-620 colon
HS 578T breast = tested on: HS 578T breast
SK-MEL-28 melanoma = tested on: SK-MEL-28 melanoma
SNB-75 CNS = tested on: SNB-75 CNS
M14 melanoma = tested on: M14 melanoma
OVCAR-5 ovarian = tested on: OVCAR-5 ovarian
HT29 colon = tested on: HT29 colon
HCC-2998 colon = tested on: HCC-2998 colon
NCI-H522 lung = tested on: NCI-H522 lung
SR leukemia = tested on: SR leukemia
T-47D breast = tested on: T-47D breast
DU-145 prostate = tested on: DU-145 prostate
RPMI-8226 leukemia = tested on: RPMI-8226 leukemia
MDA-N = tested on: MDA-N
SF-295 CNS = tested on: SF-295 CNS
UACC-62 melanoma = tested on: UACC-62 melanoma
SK-OV-3 ovarian = tested on: SK-OV-3 ovarian
HCT-15 colon = tested on: HCT-15 colon
MDA-MB-231 breast = tested on: MDA-MB-231 breast
OVCAR-4 ovarian = tested on: OVCAR-4 ovarian
NCI-H226 lung = tested on: NCI-H226 lung
UO-31 renal = tested on: UO-31 renal
COLO 205 colon = tested on: COLO 205 colon
SN12C renal = tested on: SN12C renal
SNB-19 CNS = tested on: SNB-19 CNS
NCI-H23 lung = tested on: NCI-H23 lung
SF-268 CNS = tested on: SF-268 CNS
ACHN renal = tested on: ACHN renal
RXF 393 renal = tested on: RXF 393 renal
CAKI-1 renal = tested on: CAKI-1 renal
SF-539 CNS = tested on: SF-539 CNS
K-562 leukemia = tested on: K-562 leukemia
A498 renal = tested on: A498 renal
BT-549 breast = tested on: BT-549 breast
SK-MEL-5 melanoma = tested on: SK-MEL-5 melanoma
MDA-MB-435 = tested on: MDA-MB-435
SK-MEL-2 melanoma = tested on: SK-MEL-2 melanoma
IGROV1 ovarian = tested on: IGROV1 ovarian
TK-10 renal = tested on: TK-10 renal
HCT-116 colon = tested on: HCT-116 colon
HOP-62 NSCLC = tested on: HOP-62 NSCLC
EKVX NSCLC = tested on: EKVX NSCLC
MOLT-4 leukemia = tested on: MOLT-4 leukemia
UACC-257 melanoma = tested on: UACC-257 melanoma
A549 NSCLC = tested on: A549 NSCLC
KM12 colon = tested on: KM12 colon

O=C1C=CC(=O)c2c1ccc1c3ccccc3n(-c3ccccc3[N+](=O)[O-])c21
TGI (MCF7 breast): 20 µM
TGI (CCRF-CEM leukemia): > 31.6 µM
TGI (MALME-3M melanoma): 5.63 µM
TGI (PC-3 prostate): 12.4 µM
TGI (U251 CNS): 21.2 µM
TGI (LOX IMVI melanoma): 4.76 µM
TGI (NCI/ADR-RES ovarian): 20.5 µM
TGI (NCI-H460 lung): > 100 µM
TGI (SW-620 colon): > 100 µM
TGI (HS 578T breast): 36.4 µM
TGI (SK-MEL-28 melanoma): 50.8 µM
TGI (SNB-75 CNS): 35.7 µM
TGI (M14 melanoma): 4.58 µM
TGI (OVCAR-5 ovarian): 37.5 µM
TGI (HT29 colon): > 74.1 µM
TGI (HCC-2998 colon): 13.2 µM
TGI (NCI-H522 lung): 2.87 µM
TGI (SR leukemia): > 100 µM
TGI (T-47D breast): 5.19 µM
TGI (DU-145 prostate): 18.9 µM
TGI (RPMI-8226 leukemia): > 24.1 µM
TGI (MDA-N): > 21.6 µM
TGI (SF-295 CNS): > 56.7 µM
TGI (UACC-62 melanoma): 10.2 µM
TGI (SK-OV-3 ovarian): 33 µM
TGI (HCT-15 colon): 9 µM
TGI (MDA-MB-231 breast): 7.88 µM
TGI (OVCAR-4 ovarian): 10.2 µM
TGI (NCI-H226 lung): 50.3 µM
TGI (UO-31 renal): 2.87 µM
TGI (COLO 205 colon): 4.35 µM
TGI (SN12C renal): > 71.5 µM
TGI (SNB-19 CNS): 29.3 µM
TGI (NCI-H23 lung): 19.4 µM
TGI (SF-268 CNS): 6.82 µM
TGI (ACHN renal): 3.46 µM
TGI (RXF 393 renal): 3.24 µM
TGI (CAKI-1 renal): 3.64 µM
TGI (SF-539 CNS): > 65.2 µM
TGI (K-562 leukemia): > 100 µM
TGI (A498 renal): 35.6 µM
TGI (BT-549 breast): 14.6 µM
TGI (SK-MEL-5 melanoma): 21.2 µM
TGI (MDA-MB-435): 5.6 µM
TGI (SK-MEL-2 melanoma): 31.6 µM
TGI (IGROV1 ovarian): 4.9 µM
TGI (TK-10 renal): 5.89 µM
TGI (HCT-116 colon): > 25.3 µM
TGI (HOP-62 NSCLC): > 53.7 µM
TGI (EKVX NSCLC): 23.7 µM
TGI (MOLT-4 leukemia): > 100 µM
TGI (UACC-257 melanoma): 13.1 µM
TGI (A549 NSCLC): > 64.8 µM
TGI (KM12 colon): 35.8 µM
